Laboratory results: ChEMBL document CHEMBL6120962, “New Mitochondria-Targeted Fisetin Derivative Compromises Mitophagy and Limits Survival of Drug-Induced Senescent Breast Cancer Cells” (J Med Chem, 2024)
Calls of active or inactive are those of the source. The calls are words filed in the database; no cut-off is given here.

Experiments:
HCC1428 [1] = assay: Induction of autophagosome formation in tamoxifen-induced senescent human HCC1428 cells assessed as increase in ubiquitin level at 1 to 5 uM by immunostaining based imaging cytometric analysis; assay type: functional, cell-based; conditions: dose 1-5 µM
CAMA-1 [2] = assay: Induction of apoptosis in human CAMA-1 cells assessed as decrease in Bcl2 level at 1 to 5 uM incubated for 24 hrs by Western blot analysis; assay type: functional, cell-based; conditions: dose 1-5 µM
HCC1428 [3] = assay: Induction of senescence in human HCC1428 cells assessed as increase in IL-8 level at 5 uM incubated for 24 hrs by immunostaining based imaging cytometric analysis; assay type: functional, cell-based
CAMA-1 [4] = assay: Induction of senescence in human CAMA-1 cells assessed as […] in beta-galactosidase activity at 5 uM incubated for 24 hrs by immunostaining based imaging cytometric analysis; assay type: functional, cell-based
HCC1428 [5] = assay: Induction of mitochondrial dysfunction in human HCC1428 cells assessed as decrease in ATP production at 5 uM incubated for 6 hrs by real time analysis; assay type: functional, cell-based
CAMA-1 [6] = assay: Induction of apoptosis in tamoxifen-induced senescent human CAMA-1 cells assessed as decrease in HSP90 level incubated for 24 hrs by immunostaining based imaging cytometric analysis; assay type: functional, cell-based
MCF-10F [7] = assay: Induction of mitochondrial dysfunction in human MCF-10F cells assessed as decrease in spare respiratory capacity at 5 uM incubated for 6 hrs by real time analysis; assay type: functional, cell-based
MCF-10F [8] = assay: Induction of apoptosis in human MCF-10F cells assessed as decrease in Bcl2 level at 1 to 5 uM incubated for 24 hrs by Western blot analysis; assay type: functional, cell-based; conditions: dose 1-5 µM
Mitochondrial membrane [9] = assay: Induction of mitochondrial membrane potential depolarization in tamoxifen-induced senescent human HCC1428 cells assessed as increase in depolarized dead cell level at 1 to 5 uM incubated for 24 hrs by 7-AAD staining based flow cytometric analysis; assay type: cell membranes; conditions: dose 1-5 µM
Mitochondrial membrane [10] = assay: Induction of mitochondrial membrane potential depolarization in human HCC1428 cells assessed as increase in fraction of depolarized dead cells at 5 uM incubated for 24 hrs by 7-AAD staining based flow cytometric analysis; assay type: cell membranes
Mitochondrial membrane [11] = assay: Induction of mitochondrial membrane potential depolarization in tamoxifen-induced senescent human ZR-75-30 cells assessed as increase in depolarized dead cell level at 1 to 5 uM incubated for 24 hrs by 7-AAD staining based flow cytometric analysis; assay type: cell membranes; conditions: dose 1-5 µM
HCC1428 [12] = assay: Induction of apoptosis in human HCC1428 cells assessed as decrease in AKT level at 1 to 5 uM incubated for 24 hrs by Western blotting analysis; assay type: functional, cell-based; conditions: dose 1-5 µM
HCC1428 [13] = assay: Induction of mitochondrial dysfunction in human HCC1428 cells assessed as decrease in coupling efficiency at 5 uM incubated for 6 hrs by real time analysis; assay type: functional, cell-based
Mitochondrial membrane [14] = assay: Induction of mitochondrial membrane potential depolarization in human HCC1428 cells at 1 uM incubated for 24 hrs by 7-AAD staining based flow cytometric analysis; assay type: cell membranes
BJ = assay: Cytotoxicity against human BJ cells assessed as effect on metabolic activity at 1 to 10 uM incubated for 24 hrs by MTT assay; assay type: toxicity, cell-based; conditions: dose 1-10 µM
CAMA-1 [15] = assay: Induction of apoptosis in tamoxifen-induced senescent human CAMA-1 cells assessed as phosphatidylserine externalization at 1 to 5 uM incubated for 24 hrs by Annexin V-FITC staining based flow cytometric analysis; assay type: functional, cell-based; conditions: dose 1-5 µM
MCF-10F [16] = assay: Induction of mitochondrial dysfunction in tamoxifen-induced senescent human MCF-10F cells assessed as decrease in maximal respiration at 5 uM incubated for 6 hrs by real-time analysis; assay type: functional, cell-based
HCC1500 [17] = assay: Induction of apoptosis in human HCC1500 cells assessed as decrease in Bcl2 level at 1 to 5 uM incubated for 24 hrs by Western blot analysis; assay type: functional, cell-based; conditions: dose 1-5 µM
HCC1428 [18] = assay: Induction of apoptosis in tamoxifen-induced senescent human HCC1428 cells assessed as increase in caspase 9 level incubated for 24 hrs by immunostaining based imaging cytometric analysis; assay type: functional, cell-based
HCC1428 [19] = assay: Induction of mitochondrial dysfunction in human HCC1428 cells assessed as decrease in spare respiratory capacity at 5 uM incubated for 6 hrs by real time analysis; assay type: functional, cell-based
MCF-10F [20] = assay: Induction of mitochondrial dysfunction in tamoxifen-induced senescent human MCF-10F cells assessed as decrease in spare respiratory capacity at 5 uM incubated for 6 hrs by real-time analysis; assay type: functional, cell-based
MCF-10F [21] = assay: Induction of apoptosis in tamoxifen-induced senescent human MCF-10F cells assessed as assessed as phosphatidylserine externalization at 1 to 5 uM incubated for 24 hrs by Annexin V-FITC staining based flow cytometric analysis; assay type: functional, cell-based; conditions: dose 1-5 µM
ZR-75-30 [22] = assay: Induction of apoptosis in tamoxifen-induced senescent human ZR-75-30 cells assessed as increase in caspase 9 level incubated for 24 hrs by immunostaining based imaging cytometric analysis; assay type: functional, cell-based
ZR-75-30 [23] = assay: Induction of apoptosis in tamoxifen-induced senescent human ZR-75-30 cells assessed as increase in caspase 3 level incubated for 24 hrs by immunostaining based imaging cytometric analysis; assay type: functional, cell-based
HCC1428 [24] = assay: Induction of autophagy in tamoxifen-induced senescent human HCC1428 cells assessed as increase in VPS34 level at 1 to 5 uM by immunostaining based imaging cytometric analysis; assay type: functional, cell-based; conditions: dose 1-5 µM
MCF-10F [25] = assay: Induction of mitochondrial dysfunction in human MCF-10F cells assessed as increase in proton leak at 5 uM incubated for 6 hrs by real time analysis; assay type: functional, cell-based
HCC1428 [26] = assay: Induction of mitochondrial dysfunction in tamoxifen-induced senescent human HCC1428 cells assessed as decrease in ATP production at 5 uM incubated for 6 hrs by real-time analysis; assay type: functional, cell-based
HCC1428 [27] = assay: Induction of ubiquitin-dependent mitophagy in tamoxifen-induced senescent human HCC1428 cells assessed as increase in PINK1 level at 5 uM by immunostaining based imaging cytometric analysis; assay type: functional, cell-based
HCC1428 [28] = assay: Induction of apoptosis in tamoxifen-induced senescent human HCC1428 cells assessed as decrease in AKT level at 1 to 5 uM incubated for 24 hrs by Western blotting analysis; assay type: functional, cell-based; conditions: dose 1-5 µM
HCC1428 [29] = assay: Induction of mitochondrial dysfunction in tamoxifen-induced senescent human HCC1428 cells assessed as decrease in coupling efficiency respiration at 5 uM incubated for 6 hrs by real-time analysis; assay type: functional, cell-based
MCF-10F [30] = assay: Induction of mitochondrial dysfunction in human MCF-10F cells assessed as decrease in maximal respiration at 5 uM incubated for 6 hrs by real time analysis; assay type: functional, cell-based
HCC1428 [31] = assay: Induction of autophagosome formation in tamoxifen-induced senescent human HCC1428 cells assessed as increase in LC3B level at 1 to 5 uM by immunostaining based imaging cytometric analysis; assay type: functional, cell-based; conditions: dose 1-5 µM
HCC1428 [32] = assay: Induction of AMPK phosphorylation in tamoxifen-induced senescent human HCC1428 cells incubated for 24 hrs by immunostaining based imaging cytometric analysis; assay type: cell-based; conditions: filed as activator
HCC1428 [33] = assay: Induction of mitochondrial dysfunction in tamoxifen-induced senescent human HCC1428 cells assessed as decrease in spare respiratory capacity at 5 uM incubated for 6 hrs by real-time analysis; assay type: functional, cell-based
[34] = Cytotoxicity against human MCF-10F cells assessed as effect on metabolic activity at 1 to 10 uM incubated for 24 hrs by MTT assay; assay type: toxicity, cell-based; conditions: dose 1-10 µM
ZR-75-30 [35] = assay: Effect on IL-8 level in human ZR-75-30 cells at 5 uM incubated for 24 hrs by immunostaining based imaging cytometric analysis; assay type: functional, cell-based
HCC1500 [36] = assay: Induction of apoptosis in tamoxifen-induced senescent human HCC1500 cells assessed as decrease in HSP90 level incubated for 24 hrs by immunostaining based imaging cytometric analysis; assay type: functional, cell-based

Activity (Mitochondrial membrane [9]): Active
Activity (Mitochondrial membrane [10]): Active
Activity (Mitochondrial membrane [11]): Active
Activity (Mitochondrial membrane [14]): Active
SMILES: CC(=O)Oc1ccc2c(=O)c(OCCCC[P+](c3ccccc3)(c3ccccc3)c3ccccc3)c(-c3ccc4c(c3)OC(c3ccccc3)(c3ccccc3)O4)oc2c1.[I-]
Activity (HCC1428 [1]): inactive
Activity (CAMA-1 [2]): Active
Activity (HCC1428 [3]): Active
Activity (CAMA-1 [4]): Active
Activity (HCC1428 [5]): Active
Activity (CAMA-1 [6]): Active
Activity (MCF-10F [7]): inactive
Activity (MCF-10F [8]): inactive
Activity (HCC1428 [12]): Active
Activity (HCC1428 [13]): Active
Activity (BJ): Non-toxic
Activity (CAMA-1 [15]): Active
Activity (MCF-10F [16]): inactive
Activity (HCC1500 [17]): Active
Activity (HCC1428 [18]): Active
Activity (HCC1428 [19]): Active
Activity (MCF-10F [20]): inactive
Activity (MCF-10F [21]): Active; Slight Effect Observed
Activity (ZR-75-30 [22]): Active
Activity (ZR-75-30 [23]): Active
Activity (HCC1428 [24]): Active
Activity (MCF-10F [25]): inactive
Activity (HCC1428 [26]): Active
Activity (HCC1428 [27]): Active
Activity (HCC1428 [28]): Active
Activity (HCC1428 [29]): Active
Activity (MCF-10F [30]): inactive
Activity (HCC1428 [31]): inactive
Activity (HCC1428 [32]): Active
Activity (HCC1428 [33]): Active
Activity [34]: Non-toxic
Activity (ZR-75-30 [35]): inactive
Activity (HCC1500 [36]): Active
